These are literature values, as cited in patent publication US20080021016A1, “Combined Pharmaceutical Composition for the Inhibition of the Decline of Cognitive Functions” (priority 2004, published 2008).

One data set has as its target central 5-HT2A receptors (Homo sapiens, UniProt P28223).
For data set [1] the following is noted: single 0.7 mg/kg oral treatment.
The next data set concerns the target T1, central 5-HT2C receptors (Homo sapiens, UniProt P28335).
T1 sequence (P28335 33-458): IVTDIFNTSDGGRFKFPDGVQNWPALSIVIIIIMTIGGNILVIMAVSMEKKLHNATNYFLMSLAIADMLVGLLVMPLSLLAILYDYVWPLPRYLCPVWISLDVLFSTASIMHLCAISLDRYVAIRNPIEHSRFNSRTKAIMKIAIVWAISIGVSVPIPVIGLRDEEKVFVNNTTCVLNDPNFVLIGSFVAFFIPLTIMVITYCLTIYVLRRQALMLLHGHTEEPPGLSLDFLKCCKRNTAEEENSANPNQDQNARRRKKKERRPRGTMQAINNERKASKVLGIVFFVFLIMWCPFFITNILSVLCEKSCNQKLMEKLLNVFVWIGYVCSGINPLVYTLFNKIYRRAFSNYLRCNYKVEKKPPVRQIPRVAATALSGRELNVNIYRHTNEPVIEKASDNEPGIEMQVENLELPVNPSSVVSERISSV

The conditions of data set [2]: 10 and 30 mg/kg after oral treatment.
The conditions of data set [3]: single oral dose of 3 mg/kg sc.
For data set [4] the following is noted: 1 and 10 mg/kg after oral administration.

central 5-HT2A receptors, sequence (P28223 whole entry): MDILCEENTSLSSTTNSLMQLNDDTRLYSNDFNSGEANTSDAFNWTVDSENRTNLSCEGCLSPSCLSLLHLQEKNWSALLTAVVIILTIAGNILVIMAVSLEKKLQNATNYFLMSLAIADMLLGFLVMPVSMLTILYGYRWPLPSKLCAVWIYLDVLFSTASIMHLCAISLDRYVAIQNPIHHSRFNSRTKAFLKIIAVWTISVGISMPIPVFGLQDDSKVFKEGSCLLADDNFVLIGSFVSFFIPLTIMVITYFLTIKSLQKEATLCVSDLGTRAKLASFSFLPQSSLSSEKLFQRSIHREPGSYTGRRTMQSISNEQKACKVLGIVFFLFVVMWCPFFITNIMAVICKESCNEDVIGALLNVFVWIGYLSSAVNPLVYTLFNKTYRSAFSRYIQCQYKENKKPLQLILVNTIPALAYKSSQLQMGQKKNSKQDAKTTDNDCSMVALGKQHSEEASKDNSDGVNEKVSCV

In the case of “(1R,2S,4R)-(-)-2-[N,N-(dimethylaminoethoxy)]-2-phenyl-1,7,7-trimethylbicyclo[2.2.1]heptane [deramciclane]”, on central 5-HT2A receptors, the “binding to central 5-HT2A receptors” value was “significantly bound”. In addition, the “time spent with social interactions” value in data set [1] is given as “increased the time spent with social interactions”. Also, the “binding to central 5-HT2C receptors” value at central 5-HT2C receptors is listed as “significantly bound”. Also, in data set [2], the “activity in the marble burying model” value is listed as “active”. Moreover, the “activity in the light-dark model” value in data set [3] was “active”. Besides, the “activity in the Vogel punished drinking test” value in data set [4] is on record as “active”.
